Experimental data: patent US20080188494A1 (priority 2005, published 2008)

Columns and labels:
Plasmopara viticola [1] = assay: Activity against peronospora of grapevines caused by Plasmopara viticola (Comparative Example 1, inoculation next day); format: in vivo; details: 250 ppm, potted vines sprayed to runoff, inoculated next day; untreated plants 90% infected
Protocol: (§1) The active compounds were prepared as a stock solution comprising 25 mg of active compound which was made up to 10 ml using a mixture of acetone and/or DMSO and the emulsifier Uniperol® EL (wetting agent having emulsifying and dispersing action based on ethoxylated alkylphenols) in a volume ratio of solvent/emulsifier of 99/1. The mixture was then made up to 100 ml with water. This stock solution was diluted with the solvent/emulsifier/water mixture described to the concentration of active compounds stated below.
(§2) Leaves of potted vines were sprayed to runoff point with an aqueous suspension having the concentration of active compounds stated below. The next day, the undersides of the leaves were inoculated with an aqueous sporangia suspension of Plasmopara viticola. The vines were then initially placed in a water-vapor-saturated chamber at 24° C. for 48 hours and then in a greenhouse at temperatures between 20° C. and 30° C. for 5 days. After this time, the plants were once more placed in a humid chamber for 16 hours to accelerate the eruption of sporangiospores. The extent of the development of the infection on the undersides of the leaves was then determined visually.

Plasmopara viticola [2] = assay: Activity against peronospora of grapevines caused by Plasmopara viticola, 7 day protective treatment (Comparative Example 2); format: in vivo; details: 250 ppm, potted vines, inoculated 7 days after spraying; untreated plants 90% infected
Protocol: as §1
Leaves of potted vines were sprayed to runoff point with an aqueous suspension having the concentration of active compounds stated below. To be able to assess the persistency of the substances, the plants were, after the spray coating had dried on, placed in a greenhouse for 7 days. Only then were the leaves inoculated with an aqueous zoospore suspension of Plasmopara viticola. The vines were then initially placed in a water-vapor-saturated chamber at 24° C. for 48 hours and then in a greenhouse at temperatures between 20 and 30° C. for 5 days. After this time, the plants were once more placed in a humid chamber to accelerate the eruption of sporangiospores. The extent of the development of the infection on the undersides of the leaves was then determined visually.

Plasmopara viticola [3] = assay: Activity against peronospora of grapevines caused by Plasmopara viticola (Use Example 3); format: in vivo; details: 250 ppm, potted vines sprayed to runoff, inoculated next day; untreated plants 90% infected
Protocol: as §1, §2

SMILES	infection of the plants (undersides of leaves, determined visually) (Plasmopara viticola [1])	infection of the plants (undersides of leaves, determined visually) (Plasmopara viticola [2])	infection of the plants (undersides of leaves, determined visually) (Plasmopara viticola [3])	melting point
Cc1nc2ncnn2c(N)c1CCCc1ccccc1 [Compound A]	90%	70%	–	–
CCc1nc2ncnn2c(N)c1CCc1ccccc1 [I-1, 7-amino-5-ethyl-6-(2-phenylethyl)-(1,2,4)-triazolo-(1,5-a)-pyrimidine]	–	–	no infection	210 to 211 °C
CCCc1nc2ncnn2c(N)c1CCc1ccccc1 [I-2, 7-amino-6-(2-phenylethyl)-5-propyl-(1,2,4)-triazolo-(1,5-a)-pyrimidine]	–	–	no infection	190 to 191 °C
